One molecule from US5773447A, “Compounds for treating disorders of lipid metabolism and their preparation” (Hoechst Aktiengesellschaft, priority 1996, dated 1998) can be followed below.

Data set [1] deals with LDL receptor mRNA. Description: Stimulation of LDL receptor mRNA expression in HepG2 cells (Northern blot). Format: cell-based. Particulars: Homo sapiens, 2 × 10^-6 M, 16 h incubation, 10% fetal calf serum, LDL receptor/β-actin quotient, control=100%. An excerpt: (§1) Using a surrogate system, the present inventors sought to confirm the pharmacological activity of the inventive compounds. Thus, utilizing the human hepatocytoma cell line HepG2, which is recognized on all sides as a model, it was observed that the LDL receptor mRNA levels are increased by the compounds of the formula I (Table I). Even in rat livers, within a few hours the LDL receptor mRNA levels are increased by the compounds of the formula I (Table II). The observed stimulation is in the range from 170 to 350% of the controls (control=100%). Accordingly, an effective amount of an inventive compound can include an amount sufficient to increase CDL receptor levels or reduce plasma lipid levels.
The preparation of the mRNA was carried out according to the method of Chomczynski, P. and Sacchi, N., Anal. Biochem. 162, 156-159 (1987). In organs (such as, for example, liver), the deep-frozen tissue was homogenized on dry ice beforehand in a mortar, and the mRNA was further enriched by means of Oligo dT according to standard methods (cf. Sambrook, J., Fritsch, E. F. and Maniatis, T., Molecular Cloning, second Edition, Cold Spring Harbor (1989); in this collection of methods, there are also descriptions of all further relevant molecular biology standard methods used here). […] The filters were then exposed at -70° C. on Cronex 4 films (Dupont) overnight up to 14 days in the presence of an intensifying screen, and the hybridization signals were quantified using a commercial laser densitometer by means of the film-blackening intensity. The quotient of the intensity of the LDL receptor band and of the actin band was then determined as an internal standard to correct yield variations.
Table I presents the stimulation of the LDL receptor mRNA expression in HepG2 cells by selected compounds of formula I in whole serum (final concentration of the compounds […]) after a 16 h incubation. […] The total mRNA was then prepared, and the relevant LDL receptor mRNA and β-actin mRNA levels were determined by means of the Northern blot technique. […]

In data set [2] the test system is LDL receptor mRNA. Description: Stimulation of LDL receptor mRNA expression in rat livers after administration (Northern blot). Format: in vivo. Particulars: rat liver, 6 hours after administration, untreated control=100%.
Text: as §1
The preparation of the mRNA was carried out according to the method of Chomczynski, P. and Sacchi, N., Anal. Biochem. 162, 156-159 (1987). In organs (such as, for example, liver), the deep-frozen tissue was homogenized on dry ice beforehand in a mortar, and the mRNA was further enriched by means of Oligo dT according to standard methods (cf. Sambrook, J., Fritsch, E. F. and Maniatis, T., Molecular Cloning, second Edition, Cold Spring Harbor (1989); in this collection of methods, there are also descriptions of all further relevant molecular biology standard methods used here). Five to […] of the dissolved mRNA thus obtained were denatured according to standard methods and separated on 1% horizontal agarose gels. The mRNA was transferred to Hybond N membranes (Amersham) by means of capillary blot. The specific hybridization probe used was a partial LDL receptor cDNA clone and the internal standard a plasmid which contained a β-actin gene. Both plasmids were labeled by means of a random primer kit from Amersham up to a specific activity of 5×10^9 cpm/μg. Prehybridization, hybridization and washing of the filters were carried out by standard methods. The filters were then exposed at -70° C. on Cronex 4 films (Dupont) overnight up to 14 days in the presence of an intensifying screen, and the hybridization signals were quantified using a commercial laser densitometer by means of the film-blackening intensity. The quotient of the intensity of the LDL receptor band and of the actin band was then determined as an internal standard to correct yield variations.
Liver tissue was removed and shock-frozen in liquid nitrogen. The mRNA was then isolated as described, and the relative LDL receptor mRNA levels were determined by means of the Northern blot technique. The mRNA levels of untreated control animals were set at 100%, and the stimulation of the LDL receptor mRNA in percent of the control was calculated.

Data set [3] in a line: Metabolic stability: dealkylation to compound A in in vitro incubations (HPLC). Format: in vitro ADME. Particulars: human, liver 9000 g fraction, 37° C., R1-dealkylated metabolite, read-out: relative content of compound A. From the text: It is known that compounds of formula I where R^1 =alkyl are degraded in the metabolism to compounds of the formula I where R^1 =H (in the following called compound A). Accordingly, the instant inventors sought to investigate the metabolic fate of our inventive compounds. The following experiments, which can be carried out using intact human hepatocytes or liver extracts, are used to investigate the dealkylation tendency of the compounds of the formula I according to the invention in comparison to 4-amino-2-(4,4-dimethyl-2-oxoimidazolidin-1-yl)pyrimidine-5-N-(ethyl)-N-(3-trifluoromethyl-phenyl)carboxamide hydrochloride (compound of Example 2 from EP 0 557 879--in the following called compound B).
Frozen samples of pieces of human liver stored at -78° C. were thawed by introducing them into a 1.1% strength potassium chloride solution at a temperature of 4° C. […] After thawing, the pieces of liver were prepared by standard processes [A. Y. H. Lu, W. Levin; Biochem. Biophys. Res. Comm. 46, 1339-1344 (1972), P. G. Gervasi et al.; Xenobiotica 12/8, 517 (1982)]. The temperature was kept between 0° and 4° C. during the preparation. The 9000 g fractions of ten human livers were mixed in order to exclude interindividual enzyme differences.
The test substances were dissolved in DMSO at a concentration of about 10 mg/ml. Aliquot parts of this solution were added under sterile conditions to the hepatocyte cultures or the 9000 g fractions. The incubations were carried out at 37° C. in an atmosphere having 5% CO2 and >90% atmospheric humidity. […] NADPH and Mg^2+ were added to the 9000 g fractions as cofactors [P. G. Gervasi et al.; Xenobiotica 12/8, 517 (1982)]. All samples were frozen immediately after incubation and stored at below -20° C. until analysis.
For each species and each time, all incubations with hepatocytes and 9000 g fractions were carried out without addition of a test substance. The samples obtained were used as controls in the chromatographic analysis.
For the quantitative determination of compound A, i.e. the R^1 -dealkylated metabolite, in the in vitro incubation mixtures, […] of each mixture was in each case diluted with […] of bovine serum. These samples were analyzed by the following test for the determination of compound B free base and metabolite compound A free base in serum:
Fifty microliters of the prepared solution of an internal standard (10 μg of a compound of the formula I where R^1 =CH3, R^2, R^3 =H and R^4 =CF3 /ml of methanol), 0.1 ml of sodium acetate buffer (0.4M, pH 5.5) and 5 ml of ethyl ether were added to 0.1 ml of serum. The mixture was shaken for 20 min. After centrifuging, 4 ml of the organic phase were transferred, 3 ml of n-hexane were added and the mixture was extracted with 0.5 ml of 1% strength (v/v) aqueous trifluoroacetic acid. The upper organic layer was aspirated off and discarded. The aqueous residue was evaporated at 40° C. for 30 min. in order to remove residues of the organic solvent. 100 μl of the remaining aqueous phase were injected into the HPLC apparatus. HPLC analysis was carried out on a C18 RP column (TosoHaas Semi-Micro TSK gel ODS 80 TS) using a mobile phase of 800 g of water, 270 g of acetonitrile and 1 ml of trifluoroacetic acid. The flow rate was 0.2 ml/min. The quantitative determination of the analytes was carried out by measuring the peak heights with the aid of a UV detector at γ=240 nm. The calibration range was between 50 and 0.05 μg/ml corresponding to 200 to 0.2 μg/ml in the undiluted in vitro sample. The detection limit was 0.05 μg/ml corresponding to 0.2 μg/ml in the undiluted in vitro sample.

Where a name gives a salt, the structure may show the parent alone. A value given as a limit tells only on which side of the number the result lay.

With `CC1(C)CN(c2ncc(C(=O)N(CC(F)(F)F)c3cccc(C(F)(F)F)c3)c(N)n2)C(=O)N1` [Example 1, 4-Amino-2-(4,4-dimethylimidazolidin-2-on-1-yl) pyrimidine-5-N-(2,2,2-trifluoroethyl)-N-[(3-trifluoromethyl)phenyl]carboxamide hydrochloride], the activity at 2 µM with LDL receptor mRNA [1] came to 220%. In the data set with LDL receptor mRNA [2], this molecule came in with a response vs control in vivo at 30 mg/kg of 220%. In addition, in data set [3] (incubation time 0.5 h), the metabolised at 0.5 h is less than 2%. For the same molecule, the metabolised at 1 h in data set [3] (incubation time 1 h) is less than 2%. In addition, the metabolised at 2 h in data set [3] (incubation time 2 h) came to 3%. The metabolised at 3 h in data set [3] (incubation time 3 h) turned out to be 4%.
